pEC50, pIC50: −log10 of the molar value.
Assays:
TEAD1 = TEAD1 (Homo sapiens, UniProt P28347); conditions: cited from earlier work
TEAD3 = TEAD3 (Homo sapiens, UniProt Q99594); conditions: thermal shift, reported data of Tang and Post; cited from earlier work
TEAD2 = TEAD2 (Homo sapiens, UniProt Q15562); conditions: thermal shift, reported data of Tang and Post; cited from earlier work
TEAD4 = TEAD4 (Homo sapiens, UniProt Q15561); conditions: cited from earlier work
NCI-H226 cells [1] = test: Proliferation, Cell Titer One assay; assay type: cell-based; conditions: 6 days
Description: (§1) Cell proliferation of a TEAD dependent NF2-null mesothelioma cell line, NCI-H226, and a TEAD-non-dependent mesothelioma cell line, NCI-H28 was assayed using two different protocols: • a) CellTiter-Glo 2.0 (Promega #G9243). The effect of the TEAD inhibitors disclosed herein on cell proliferation was determined in TEAD1-genetically dependent cell line NCI-H226 (responder cell line) and TEAD-independent cell lines (NCI-H23, HEK293T), as non-responder, negative control. Cells were seeded in 96-well plates (Thermo Scientific #167008) in growth media (RPMI-1640, Gibco #61870-010) for NCI-H226 and NCI-H23 or DMEM (Gibco #31966-021, HEK293T) with 10% Heat Inactivated Fetal Bovine Serum (Gibco 10500-064) at 800 (NCI-H226 and HEK-293T) or 2000 (NCI-H23) cells per well at 37° C., 5% CO2, humidified incubator; 24 hours later, fresh growth media containing test compound or DMSO vehicle was added and incubated with the cells for 144 hrs. TEAD inhibitor stocks were made at a 1000× fold excess in DMSO, and a dose response test compound dose range of 10,000 to 0.1 nM was used. Each treatment was carried out in triplicate. After 144 hrs of treatment, relative cell viability numbers were determined using the CellTiter-Glo 2.0 assay following the manufacturer's instructions. Test plates and CellTiter-Glo 2.0 reagent were allowed to equilibrate to room temperature. CellTiter-Glo 2.0 reagent was added at 1:1 reagent to media ratio to the 96-well cell plates, plates were placed on a plate shaker for 2 minutes and then incubated at room temperature for a further 10 minutes to allow complete cell lysis to occur. The mix was then transferred to white, 96-well luminometer assay plates (Greiner Bio One #655075). Luminescence was quantified using a CLARIOStar Plus multi-mode plate reader (BMG Labtech) in luminescence detection mode with the recommended settings (ultra-Glo pre-set: emission 545-50 nm with autofocus and enhanced dynamic range on). Relative cell density was expressed as a function of inhibitor concentration, with respect to DMSO-only control wells. Data where plotted using GraphPad Prism and IC50 values for the biological effect were calculated using the EC50 non-linear fit function using a sigmoidal, 4-parameter logistic, least squares fit with no constraints. • b) Cell Titer One (Promega, #G3582). The effect of the TEAD inhibitors disclosed herein on cell proliferation was also determined using the Promega Substrate Cell Titer Aqueous One Solution Reagent. The TEAD inhibitors were evaluated for the effects on cell proliferation responder (H226) and non-responder negative control cancer cell lines (CAMA1, H28), as well as non-transformed normal human cells (HUVEC, NHDF). Dissociated cells were resuspend in media (depending on cell line, either in DMEM, RPMI, or EMEM all with 10% FBS, with gentamicin as an antibiotic). Cells were seeded at 100 μL/well at 750 cells per well in 96-well plates and allowed to settle and attach. After an incubation of 24 hrs (37° C., 5% CO2, humidified incubator), 100 μL of test compound-containing media was added. A dilution series of 2000× concentrated stock of test compounds was prepared in DMSO, for final concentrations from 0.1 to 10,000 nM. After addition of test compound-containing media, cells were incubated for 6 days at 37° C., 5% CO2, humidified incubators). To measure cell density, 20 μL of Promega Substrate Cell Titer 96 Aqueous One Solution Reagent (Promega, #G3582) to each well was added according to the manufacturer's instructions. Plates were incubated at 37° C. for usually 3-8 hrs, to reach in the control cells (without compound) an OD of 1.5 at 490 nm. The OD was measured using Vmax [Molecular Devices] spectrophotometer plate reader. Media only-wells were used as background controls and cell densities normalized to DMSO vehicle control. ECs were taken as the concentration achieving 50% of maximal growth inhibition.

NCI-H28 cells = test: Proliferation, Cell Titer One assay; assay type: cell-based; conditions: 6 days
Description: as §1

NCI-H226 cells [2] = test: Proliferation and cell viability, CellTiter-Glo 2.0 (CTG) assay; assay type: cell-based; conditions: H226-responder cell line, 144 hrs
Description: as §1

NCI-H23 cells = test: as above; assay type: cell-based; conditions: 144 hrs
Description: as §1

[3] = test system: TEAD/YAP promoter element in MCF7-Luc cells; test: Cell-based TEAD-promoter transcriptional activity assay (MCF-7 TEAD luciferase); conditions: Homo sapiens, MCF7; MCF-7 TEAD luciferase assay, 24 hrs
Text: Luciferase based TEAD-transcriptional cell-based reporter assay: To measure the effect of the TEAD inhibitors disclosed herein on TEAD transcriptional activity in cell-based systems, we employed a stable MCF7 cell line expressing luciferase under a consensus synthetic TEAD/YAP promoter element (MCF7-Luc, BPS Bioscience, Catalog #60618). This MCF7-TEAD-Luc cell line has been extensively validated with both genetic and pharmacological intervention, showing inhibition of luciferase expression and luminescence in response to ablation of the TEAD/YAP pathway. MCF7-Luc cells were plated at 10,000 cells per well in white 384-well plates and settled by a quick spin. The media was MEM (Gibco) supplemented with 10% fetal bovine serum (ExCell), selenium-transferrin-insulin mix (Gibco), 1× non-essential amino acids (Gibco) and sodium pyruvate (Gibco). Cells were allowed to attach and grow overnight (37° C., 5% CO2 in humidified incubator), and test compounds were added the next day. Compounds were dissolved at 1000× fold excess in DMSO and made into 2-fold serial dilution, and added to media at 30 μL of media per well. A DMSO-only well serves a vehicle control. The highest concentration of drug in media was 1,000 nM. Positive control compounds include K975 (pan-TEAD inhibitor) and negative control (Actinomycin). Cells were incubated for 24 hrs with test compounds and positive controls, after which time, the luminescence was measured by the One-Glo luciferase kit (Promega). 30 μL of One-Glo reagent was added to each well and shaken for 8 minutes to lyse the cells. The plates were centrifugated at 1000 RPM for 1 minute to settle all liquid in the well and eliminate bubbles. Luminescence was quantified using an ENVision plate reader (Perkin Elmer). Percent inhibition of luminescence by test compound was expressed as a function of test compound concentration, with the no-test compound DMSO only wells serving as baseline. EC50 values for each compound were calculated with a non-linear asymptotic line fit.

[4] = thermal shift assays of Tang and Post
[5] = thermal shift, reported data of Tang and Post
[6] = Homo sapiens, NCI-H23, H23-non-responder cell line

TEAD4, sequence (Q15561 whole entry): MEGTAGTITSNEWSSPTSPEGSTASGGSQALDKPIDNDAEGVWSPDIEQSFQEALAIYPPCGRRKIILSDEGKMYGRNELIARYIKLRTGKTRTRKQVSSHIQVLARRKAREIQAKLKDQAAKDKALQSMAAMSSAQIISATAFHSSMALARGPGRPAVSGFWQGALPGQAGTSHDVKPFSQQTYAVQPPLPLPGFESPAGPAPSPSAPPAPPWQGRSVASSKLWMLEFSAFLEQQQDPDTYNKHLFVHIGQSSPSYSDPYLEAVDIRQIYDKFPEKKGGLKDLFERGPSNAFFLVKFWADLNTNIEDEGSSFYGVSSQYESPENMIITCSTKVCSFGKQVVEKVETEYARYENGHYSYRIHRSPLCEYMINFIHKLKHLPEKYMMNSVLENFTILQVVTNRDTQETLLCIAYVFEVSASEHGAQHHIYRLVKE
TEAD1, sequence (P28347 whole entry): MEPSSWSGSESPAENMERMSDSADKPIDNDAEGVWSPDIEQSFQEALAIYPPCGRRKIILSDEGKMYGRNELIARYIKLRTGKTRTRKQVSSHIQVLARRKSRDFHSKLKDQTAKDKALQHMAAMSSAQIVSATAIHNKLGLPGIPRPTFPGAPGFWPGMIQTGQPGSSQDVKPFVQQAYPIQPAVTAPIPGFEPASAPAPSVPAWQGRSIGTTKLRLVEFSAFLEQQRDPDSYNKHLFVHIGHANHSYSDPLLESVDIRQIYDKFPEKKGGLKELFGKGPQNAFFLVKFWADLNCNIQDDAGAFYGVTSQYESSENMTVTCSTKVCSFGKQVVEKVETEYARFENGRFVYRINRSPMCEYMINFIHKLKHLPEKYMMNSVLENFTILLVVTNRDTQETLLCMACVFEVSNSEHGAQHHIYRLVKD
TEAD2, sequence (Q15562 whole entry): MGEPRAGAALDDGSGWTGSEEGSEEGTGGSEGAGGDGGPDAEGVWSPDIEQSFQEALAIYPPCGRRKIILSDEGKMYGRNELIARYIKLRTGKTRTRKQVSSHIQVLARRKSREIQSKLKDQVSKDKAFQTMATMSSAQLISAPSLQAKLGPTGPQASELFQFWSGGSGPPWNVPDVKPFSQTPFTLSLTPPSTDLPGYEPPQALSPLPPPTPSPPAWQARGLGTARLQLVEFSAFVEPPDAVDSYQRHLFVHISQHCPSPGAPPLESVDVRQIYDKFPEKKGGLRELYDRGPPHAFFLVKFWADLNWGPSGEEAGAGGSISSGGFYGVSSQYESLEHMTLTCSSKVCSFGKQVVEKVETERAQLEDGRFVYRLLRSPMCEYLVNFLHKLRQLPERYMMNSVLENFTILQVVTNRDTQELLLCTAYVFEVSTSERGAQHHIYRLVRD
TEAD3, sequence (Q99594 whole entry): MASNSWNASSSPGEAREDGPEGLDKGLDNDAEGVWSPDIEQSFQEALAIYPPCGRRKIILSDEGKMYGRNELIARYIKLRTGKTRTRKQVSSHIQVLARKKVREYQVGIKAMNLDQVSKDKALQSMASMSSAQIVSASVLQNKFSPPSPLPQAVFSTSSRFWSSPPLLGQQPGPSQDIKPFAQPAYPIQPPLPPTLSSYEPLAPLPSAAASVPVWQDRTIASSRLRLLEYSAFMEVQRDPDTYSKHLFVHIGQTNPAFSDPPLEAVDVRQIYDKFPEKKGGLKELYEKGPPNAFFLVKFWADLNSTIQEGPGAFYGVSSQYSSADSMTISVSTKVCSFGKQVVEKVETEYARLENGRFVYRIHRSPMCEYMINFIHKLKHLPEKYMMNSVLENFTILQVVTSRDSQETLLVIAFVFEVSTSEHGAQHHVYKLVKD

Row | Compound | pIC50 (NCI-H226 cells [1]) | pIC50 (NCI-H28 cells) | pIC50 (NCI-H226 cells [2]) | pIC50 (NCI-H23 cells; H23-non-responder cell line) | pIC50 (NCI-H226 cells [1]; Homo sapiens, NCI-H226, 144 h) | pIC50 (NCI-H28 cells; Homo sapiens, NCI-H28, 144 h) | pIC50 (NCI-H226 cells [2]; Homo sapiens, NCI-H226, 144 h) | pIC50 (NCI-H23 cells; [6]) | further results
1 | C[C@H](CO)NC(=O)c1ccc2c(Oc3ccc(C(F)(F)F)cc3)cccc2c1 [VT3989] | – | – | – | – | – | – | – | – | interaction with TEAD isoforms, in words (TEAD1; [4]): primarily interacts with TEAD1-3; TEAD1 ΔTm (TEAD1; [5]): 11.6 °C; TEAD3 ΔTm (TEAD3): 8.5 °C; TEAD2 ΔTm (TEAD2): 8.8 °C; binding to TEAD4, in words (TEAD4; [4]): lower levels of binding to TEAD4; TEAD4 ΔTm (TEAD4; [5]): 4.6 °C
2 | CC(C)NC(=O)c1cnc2c(C3=CCC(C(F)(F)F)CC3)cccc2c1 (centres unmarked) [Compound 1, N-isopropyl-8-(4-(trifluoromethyl)cyclohex-1-en-1-yl)quinoline-3-carboxamide] | – | – | – | – | > 6.70 | < 6.00 | > 6.70 | < 6.00 | pEC50 [3]: > 6.70
3 | COC[C@H](C)NC(=O)c1cnc2c(C3=CCC(C(F)(F)F)CC3)cccc2c1 (stereo partly drawn) [Compound 6, N—((S)-1-methoxypropan-2-yl)-8-(4-(trifluoromethyl)cyclohex-1-en-1-yl)quinoline-3-carboxamide] | – | – | – | – | > 6.70 | < 6.00 | > 6.70 | < 6.00 | –

The next lines start with results.

Row | pIC50 (NCI-H226 cells [1]) | pIC50 (NCI-H28 cells) | pIC50 (NCI-H226 cells [2]) | pIC50 (NCI-H23 cells; H23-non-responder cell line) | pIC50 (NCI-H226 cells [1]; Homo sapiens, NCI-H226, 144 h) | pIC50 (NCI-H28 cells; Homo sapiens, NCI-H28, 144 h) | pIC50 (NCI-H226 cells [2]; Homo sapiens, NCI-H226, 144 h) | pIC50 (NCI-H23 cells; [6]) | Compound | further results
4 | 6.00 to 6.70 | < 6.00 | > 6.70 | < 6.00 | – | – | – | – | C[C@H](NC(=O)c1cnc2c(C3=CC[C@@H](C(F)(F)F)CC3)cccc2c1)c1ncco1 (single isomer, unassigned) [Compound 22, N-(1-(oxazol-2-yl)ethyl)-8-(4-(trifluoromethyl)cyclohex-1-en-1-yl)quinoline-3-carboxamide] | –
5 | – | – | – | – | > 6.70 | < 6.00 | > 6.70 | – | CS(=O)(=O)c1cnc2c(C3=CCC(C(F)(F)F)CC3)cccc2c1 (centres unmarked) [Compound 16, 3-(methylsulfonyl)-8-(4-(trifluoromethyl)cyclohex-1-en-1-yl)quinoline] | –
6 | 6.00 to 6.70 | < 6.00 | 6.00 to 6.70 | < 6.00 | – | – | – | – | C[C@H](NC(=O)c1cnc2c(C3=CC[C@@H](C(F)(F)F)CC3)cccc2c1)c1ncco1 (single isomer, unassigned) [Compound 21, N-(1-(oxazol-2-yl)ethyl)-8-(4-(trifluoromethyl)cyclohex-1-en-1-yl)quinoline-3-carboxamide] | –

Source: patent publication US20250223306A1, “TEAD INHIBITORS AND METHODS OF USE” (Sporos BioDiscovery, Inc., priority 2022, published 2025)
